{"source": "patent US20210267978A1", "about": "“NANOPARTICLE FORMULATIONS OF IKE AND METHODS OF USE THEREOF” (The Trustees of Columbia University in the City of New York, priority 2018, published 2021)", "key": {"[1]": {"test": "Pharmacokinetic analysis in mice with three administration routes (plasma, LC-MS)", "assay_type": "in vivo", "conditions": "NOD/SCID mice; for AUC(0-t) / Cmax / Tmax / half-life / concentration at 8 h: mouse; for concentration at 8 h: read-out: Clast", "method": "NOD/SCID mice 12-weeks of age and ˜28 g weight were weighed before injection and divided into groups of 3 mice per cage. IKE was dissolved in 5% DMSO/95% Hank's Balanced Salt Solution (HBSS) (Thermo Fisher Scientific, 14025076), pH 4, to create a 5 mg/mL solution. 5% DMSO/95% HBSS at pH 4 solution (Vehicle 1) without IKE was used as vehicle. The solution was sterilized using a 0.22 μm Steriflip filter unit (Thomas Scientific 1189Q46). Mice were dosed using three different routes, IP and PO with 50 mg/kg IKE, and IV with 17 mg/kg IKE. Samples were collected at 0, 1, 3, 4, and 8 h from three mice per time point. Additionally, three mice per group were used as control by administration with equivalent amount of vehicle 1 by IP, PO, and IV, and samples were collected at 8 h. At the appropriate time, mice were sacrificed by CO2 asphyxiation for 3 min and ˜0.5 mL of blood was collected via cardiac puncture. Blood was immediately put into K3 EDTA micro tube (SARSTEDT 41.1504.105) and placed on ice. Samples were centrifuged for 10 min at 2,100×g at 4° C., plasma was then transferred to a clean tube. Plasma samples were flash frozen in liquid nitrogen and stored at −80° C. IKE was extracted from plasma by adding 900 μL acetonitrile to 100 μL plasma. Samples were mixed for at least 5 min by rotating at room temperature and were sonicated prior to […] for 10 min at 4,000×g and 4° C. The supernatant was removed and dried on a GeneVac evaporator overnight on an HPLC setting. After drying, the samples were resuspended in 100 μL of methanol and analyzed on the liquid chromatography mass spectrometry (LC-MS), with each sample analyzed twice. Quality control standard samples were prepared by dissolving IKE in 100 μL water and extraction with the same procedures to ensure that the extraction was efficient. LC-MS analysis was performed on a platform comprising a Thermo Scientific Dionex Ultimate 3000RS controlled by Chromeleon (Dionex) and a Bruker amazon SL ESI ion-trap mass spectrometer.\nChromatographic separation was performed at 20° C. on Agient Eclipse Plus C18 column (2.1×50 mm, 3.5 μm) at 20° C. over a 12 minute gradient elution. Mobile phase A consisted of water with 0.1% acetic acid v/v and mobile phase B was methanol with 0.1% acetic acid v/v. After injection, the gradient was held at 80% mobile phase A for 1 min. The gradient was then ramped in a linear fashion to 80% mobile phase over 0.5 min. Over the next 3.5 min, the gradient was ramped in linear fashion to 100% mobile phase B and held at 100% mobile phase B for 3.25 min. The gradient was then ramped in a linear fashion to 80% mobile phase over 0.5 min and held there for the duration of the run. The flow rate was set to 400 μL/min and injection volumes were 5 μL. The retention time for IKE in this gradient was 2.8 min.\nMass spectrometry analysis was performed on a Bruker Amazon SL (Billerca, MA) in positive ESI mode. Trap Control was used to control the ESI settings with the inlet capillary held at −4500 V and the end plate offset at −500 V. Nitrogen was used as the desolvation gas. Hystar v 3.2 was used to integrate the UHPLC and MS applications, and data analysis was performed with the Compass DataAnalysis software. The base peak chromatogram at m/z 655.2 with a width of ±0.1 was integrated and peak area quantified by standard curve.\nPharmacokinetics (PK) of IKE was assessed using Prism fitted with lognormal of one phase exponential decay."}, "[2]": {"system": "SUDHL6 cells", "test": "qPCR analysis of gene expression in cell culture", "assay_type": "cell-based", "method": "To perform qPCR analysis in cell culture, DLBCL cells were treated with 0-10 μM IKE, Fer-1, or β-Me for the indicated times. RNA was extracted using the Qiashredder and Qiagen RNeasy Mini kits (Qiagen) according to the manufacture's protocol. 2 μg RNA from each sample was reversed transcribed to cDNA using a High Capacity cDNA Reverse Transcription Kit (Thermo Fisher Scientific, 4368814). Quantitative PCR reactions were performed using Power SYBR Green PCR Master Mix (Applied Biosystems) with triplicate measurement on ViiA 7 Real-Time PCR instrument (Thermo Fischer). HPRT1 was used as an internal reference. Differences in mRNA levels compared with HPRT1 were computed between vehicle and experimental groups using the ΔΔCt method. The primers used in the study were listed below."}}, "note": "Like-named read-outs stand apart in the source and are kept apart here.", "data": [{"smiles": "CC(C)Oc1ccc(C(=O)Cn2ccnc2)cc1-n1c(CN2CCN(C(=O)COc3ccc(Cl)cc3)CC2)nc2ccccc2c1=O", "note": "[IKE, Imidazole ketone erastin]", "values": [{"measurement": "Tlast", "setting": "[1]; IP, 50 mg/kg IKE", "value": 8, "unit": "h"}, {"measurement": "Tlast", "setting": "[1]; IV, 17 mg/kg IKE", "value": 8, "unit": "h"}, {"measurement": "Tlast", "setting": "[1]; PO, 50 mg/kg IKE", "value": 8, "unit": "h"}, {"measurement": "AUC(0-t)", "setting": "[1]; IP, 50 mg/kg IKE", "value": 53900, "unit": "ng·h/mL"}, {"measurement": "Cmax", "setting": "[1]; IP, 50 mg/kg IKE", "value": 19500, "unit": "ng/mL"}, {"measurement": "Tmax", "setting": "[1]; IP, 50 mg/kg IKE", "value": 18.6, "unit": "min"}, {"measurement": "half-life", "setting": "[1]; IP, 50 mg/kg IKE", "value": 109, "unit": "min"}, {"measurement": "concentration at 8 h", "setting": "[1]; IP, 50 mg/kg IKE", "value": 1530, "unit": "ng/mL"}, {"measurement": "AUC(0-t)", "setting": "[1]; IV, 17 mg/kg IKE", "value": 17000, "unit": "ng·h/mL"}, {"measurement": "Cmax", "setting": "[1]; IV, 17 mg/kg IKE", "value": 11400, "unit": "ng/mL"}, {"measurement": "Tmax", "setting": "[1]; IV, 17 mg/kg IKE", "value": 0, "unit": "min"}, {"measurement": "half-life", "setting": "[1]; IV, 17 mg/kg IKE", "value": 78.6, "unit": "min"}, {"measurement": "concentration at 8 h", "setting": "[1]; IV, 17 mg/kg IKE", "value": 16, "unit": "ng/mL"}, {"measurement": "AUC(0-t)", "setting": "[1]; PO, 50 mg/kg IKE", "value": 5720, "unit": "ng·h/mL"}, {"measurement": "Cmax", "setting": "[1]; PO, 50 mg/kg IKE", "value": 5200, "unit": "ng/mL"}, {"measurement": "Tmax", "setting": "[1]; PO, 50 mg/kg IKE", "value": 43.2, "unit": "min"}, {"measurement": "half-life", "setting": "[1]; PO, 50 mg/kg IKE", "value": 57.6, "unit": "min"}, {"measurement": "concentration at 8 h", "setting": "[1]; PO, 50 mg/kg IKE", "value": 48, "unit": "ng/mL"}, {"measurement": "GPX4, CBS and ACSL4 expression", "setting": "[2]; DLBCL cells, IKE treatment (data not shown)", "value": "not upregulated"}, {"measurement": "SLC7A11, PTGS2 and CHAC1 expression", "setting": "[2]; SUDHL6 cells following IKE treatment", "value": "significantly increased"}, {"measurement": "SLC7A11 expression induced starting from (time post incubation)", "setting": "[2]; SUDHL-6 cells, 500 nM IKE", "value": 3, "unit": "h"}, {"measurement": "expression of lipid metabolism genes ACC1, ELOVL7, ATGL, sPLA2F, LPEAT1, LPCAT4, ALOX12, ALOX15", "setting": "[2]; SUDHL-6 cells, 500 nM IKE", "value": "upregulated"}, {"measurement": "highest mRNA change (CHAC1)", "setting": "[2]; SUDHL-6 cells, 500 nM IKE", "value": 33, "unit": "fold"}, {"measurement": "increased PTGS2 expression", "setting": "[2]; SUDHL-6 cells, 500 nM IKE, starting from 5 minutes", "value": "over 10 fold"}, {"measurement": "increased CHAC1 expression", "setting": "[2]; SUDHL-6 cells, 500 nM IKE, starting from post 5 minutes", "value": "over 5 fold"}]}]}
